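Assay format: 96-well plates, 48-hour exposure. TGI is the concentration that stops growth completely.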
Columns and labels:
Experiment in all cases: NCI-60 cell line screen, 48 h
[1] = test system: 786-0 renal
[2] = test system: CCRF-CEM leukemia
[3] = test system: DLD-1 colon
[4] = test system: DMS 273 small cell lung
[5] = test system: HCC-2998 colon
[6] = test system: HCT-116 colon
[7] = test system: HL-60(TB) leukemia
[8] = test system: HOP-62 NSCLC
[9] = test system: K-562 leukemia
[10] = test system: KM20L2 colon
[11] = test system: LOX IMVI melanoma
[12] = test system: LXFL 529 NSCLC
[13] = test system: M14 melanoma
[14] = test system: MOLT-4 leukemia
[15] = test system: NCI-H226 lung
[16] = test system: NCI-H23 lung
[17] = test system: NCI-H460 lung
[18] = test system: NCI-H522 lung
[19] = test system: OVCAR-4 ovarian
[20] = test system: RPMI-8226 leukemia
[21] = test system: RXF 393 renal
[22] = test system: SF-539 CNS
[23] = test system: SK-MEL-28 melanoma
[24] = test system: SNB-19 CNS
[25] = test system: SNB-75 CNS
[26] = test system: SNB-78 CNS
[27] = test system: U251 CNS
[28] = test system: A498 renal
[29] = test system: A549 NSCLC
[30] = test system: ACHN renal
[31] = test system: BT-549 breast
[32] = test system: CAKI-1 renal
[33] = test system: COLO 205 colon
[34] = test system: DU-145 prostate
[35] = test system: EKVX NSCLC
[36] = test system: HCT-15 colon
[37] = test system: HOP-92 NSCLC
[38] = test system: HS 578T breast
[39] = test system: HT29 colon
[40] = test system: IGROV1 ovarian
[41] = test system: KM12 colon
[42] = test system: MALME-3M melanoma
[43] = test system: MCF7 breast
[44] = test system: MDA-MB-231 breast
[45] = test system: MDA-MB-435
[46] = test system: MDA-N
[47] = test system: NCI/ADR-RES ovarian
[48] = test system: OVCAR-3 ovarian
[49] = test system: OVCAR-5 ovarian
[50] = test system: OVCAR-8 ovarian
[51] = test system: PC-3 prostate
[52] = test system: SF-268 CNS
[53] = test system: SF-295 CNS
[54] = test system: SK-MEL-2 melanoma
[55] = test system: SK-MEL-5 melanoma
[56] = test system: SK-OV-3 ovarian
[57] = test system: SN12C renal
[58] = test system: SR leukemia
[59] = test system: SW-620 colon
[60] = test system: T-47D breast
[61] = test system: TK-10 renal
[62] = test system: UACC-257 melanoma
[63] = test system: UACC-62 melanoma
[64] = test system: UO-31 renal
[65] = test system: M19-MEL melanoma

## Cc1cnc(-c2ccccc2)o1
[1]
  TGI: > 100 µM
[2]
  TGI: > 100 µM
[3]
  TGI: > 100 µM
[4]
  TGI: > 100 µM
[5]
  TGI: > 100 µM
[6]
  TGI: > 100 µM
[7]
  TGI: > 100 µM
[8]
  TGI: > 100 µM
[9]
  TGI: > 100 µM
[10]
  TGI: > 100 µM
[11]
  TGI: > 100 µM
[12]
  TGI: > 100 µM
[13]
  TGI: > 100 µM
[14]
  TGI: > 100 µM
[15]
  TGI: > 100 µM
[16]
  TGI: > 100 µM
[17]
  TGI: > 100 µM
[18]
  TGI: > 100 µM
[19]
  TGI: > 100 µM
[20]
  TGI: > 100 µM
[21]
  TGI: > 100 µM
[22]
  TGI: > 100 µM
[23]
  TGI: > 100 µM
[24]
  TGI: > 100 µM
[25]
  TGI: > 100 µM
[26]
  TGI: > 100 µM
[27]
  TGI: > 100 µM

## N#CC1CCCC2SC(F)(F)C(F)(F)C12 (centres undefined)
[1]
  TGI: > 100 µM
[28]
  TGI: > 100 µM
[29]
  TGI: > 100 µM
[30]
  TGI: > 100 µM
[31]
  TGI: > 100 µM
[32]
  TGI: > 100 µM
[2]
  TGI: > 66.7 µM
[33]
  TGI: > 100 µM
[34]
  TGI: > 100 µM
[35]
  TGI: > 100 µM
[5]
  TGI: > 100 µM
[6]
  TGI: > 100 µM
[36]
  TGI: > 100 µM
[7]
  TGI: 54.9 µM
[8]
  TGI: > 100 µM
[37]
  TGI: > 100 µM
[38]
  TGI: > 100 µM
[39]
  TGI: > 100 µM
[40]
  TGI: > 100 µM
[9]
  TGI: > 78.3 µM
[41]
  TGI: > 100 µM
[11]
  TGI: > 100 µM
[13]
  TGI: > 100 µM
[42]
  TGI: > 100 µM
[43]
  TGI: > 100 µM
[44]
  TGI: > 100 µM
[45]
  TGI: > 100 µM
[46]
  TGI: > 100 µM
[14]
  TGI: 99.3 µM
[15]
  TGI: > 100 µM
[16]
  TGI: > 100 µM
[17]
  TGI: > 100 µM
[18]
  TGI: > 100 µM
[47]
  TGI: > 100 µM
[48]
  TGI: > 100 µM
[19]
  TGI: > 100 µM
[49]
  TGI: > 100 µM
[50]
  TGI: > 100 µM
[51]
  TGI: > 100 µM
[20]
  TGI: > 100 µM
[21]
  TGI: > 100 µM
[52]
  TGI: > 100 µM
[53]
  TGI: > 100 µM
[22]
  TGI: > 100 µM
[54]
  TGI: > 100 µM
[23]
  TGI: > 100 µM
[55]
  TGI: > 100 µM
[56]
  TGI: > 100 µM
[57]
  TGI: > 100 µM
[24]
  TGI: > 100 µM
[25]
  TGI: > 100 µM
[58]
  TGI: 72.7 µM
[59]
  TGI: > 100 µM
[60]
  TGI: > 100 µM
[61]
  TGI: > 100 µM
[27]
  TGI: > 100 µM
[62]
  TGI: > 100 µM
[63]
  TGI: > 100 µM
[64]
  TGI: > 100 µM

## S=c1[nH]nc(-c2ccccc2)n1/N=C\c1ccc(-c2ccc(Cl)cc2)o1
[1]
  TGI: > 100 µM
[29]
  TGI: > 100 µM
[30]
  TGI: > 100 µM
[33]
  TGI: > 100 µM
[3]
  TGI: > 100 µM
[6]
  TGI: > 100 µM
[7]
  TGI: > 100 µM
[8]
  TGI: > 100 µM
[37]
  TGI: > 100 µM
[39]
  TGI: > 100 µM
[40]
  TGI: > 100 µM
[9]
  TGI: > 100 µM
[41]
  TGI: > 100 µM
[10]
  TGI: > 100 µM
[11]
  TGI: > 100 µM
[12]
  TGI: > 100 µM
[13]
  TGI: > 100 µM
[65]
  TGI: > 100 µM
[14]
  TGI: > 100 µM
[15]
  TGI: > 100 µM
[16]
  TGI: > 100 µM
[17]
  TGI: > 100 µM
[18]
  TGI: > 100 µM
[48]
  TGI: > 100 µM
[19]
  TGI: > 100 µM
[49]
  TGI: > 100 µM
[50]
  TGI: > 100 µM
[20]
  TGI: > 100 µM
[52]
  TGI: > 100 µM
[53]
  TGI: > 100 µM
[22]
  TGI: > 100 µM
[23]
  TGI: > 100 µM
[56]
  TGI: > 100 µM
[24]
  TGI: > 100 µM
[25]
  TGI: > 100 µM
[26]
  TGI: > 100 µM
[58]
  TGI: > 100 µM
[59]
  TGI: > 100 µM
[61]
  TGI: > 100 µM
[27]
  TGI: > 100 µM
[62]
  TGI: > 100 µM
[63]
  TGI: > 100 µM
[64]
  TGI: > 100 µM
